US20250154173A1 (Merck Sharp & Dohme LLC, priority 2023, published 2025)

Molecular target: T1, GST-RIPK1 (recombinant GST-RIPK1 kinase domain (residues 1-327)) (Homo sapiens, UniProt Q13546)
T1 construct: recombinant GST-RIPK1 kinase domain (residues 1-327) enzyme produced from baculovirus-transfected Sf21 cells; host or cells: baculovirus-transfected Sf21 insect cells
T1 sequence (Q13546 1-327): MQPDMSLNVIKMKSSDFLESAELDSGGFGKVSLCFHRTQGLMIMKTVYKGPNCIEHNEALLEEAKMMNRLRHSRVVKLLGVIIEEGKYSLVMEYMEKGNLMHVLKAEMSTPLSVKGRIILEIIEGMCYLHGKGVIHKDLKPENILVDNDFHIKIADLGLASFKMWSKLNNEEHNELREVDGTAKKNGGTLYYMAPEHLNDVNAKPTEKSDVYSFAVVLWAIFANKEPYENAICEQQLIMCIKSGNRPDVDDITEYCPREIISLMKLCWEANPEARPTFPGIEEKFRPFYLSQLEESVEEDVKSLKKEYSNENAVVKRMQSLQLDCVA
Assay: RIPK1-ADP-Glo Enzymatic Assay
Assay type: biochemical
Details: ten-point titration, top compound concentration of 100000 nM; 25 nM GST-RIPK1, 300 μM ATP, 3 μM dephosphorylated-MBP; 30 min pre-incubation, 150 min reaction
Protocol: RIPK1-ADP-Glo Enzymatic Assay
The enzymatic activity of RIPK1 is measured using an assay derived from ADP-Glo kit (TMPromega), which provides a luminescent-based ADP detection system. Specifically, the ADP generated by RIPK1 kinase is proportionally detected as luminescent signals in a homogenous fashion. In this context, the assessment of the inhibitory effect of small molecules (EC50) is measured by the effectiveness of the compounds to inhibit the ATP to ADP conversion by RIPK1.
In this assay, the potency (EC50) of each compound was determined from a ten-point (1:3 serial dilution; top compound concentration of 100000 nM) titration curve using the following outlined procedure. To each well of a white ProxiPlus 384 well-plate, 30 nL of compound (1% DMSO in final assay volume of 3 μL) was dispensed, followed by the addition of 2 μL of 1× assay buffer (25 mM Hepes 7.3, 20 mM MgCl2, 50 mM NaCl, 1 mM DTT, 0.005% Tween20, and 0.02% BSA) containing 37.5 nM of GST-RIPK1 (recombinant GST-RIPK1 kinase domain (residues 1-327) enzyme produced from baculovirus-transfected Sf21 cells: MW=62 kDa). Plates were placed in an ambient temperature humidified chamber for a 30 minutes pre-incubation with compound. Subsequently, each reaction was initiated by the addition of 1 μL 1× assay buffer containing 900 μM ATP and 3 μM dephosphorylated-MBP substrate. The final reaction in each well of 3 μL consists of 25 nM of GST-RIPK1, 300 μM ATP, and 3 μM dephosphorylated-MBP. Kinase reactions were allowed to proceed for 150 minutes prior to adding ADP-Glo reagents per Promega's outlined kit protocol. Dose-response curves were generated by plotting percent effect (% product conversion; Y-axis) vs. Log 10 compound concentrations (X-axis). EC50 values were calculated using a non-linear regression, four-parameters sigmoidal dose-response model.

SMILES	EC50 [nM]
CC(OC1CC2(C1)O[C@@H]1CC[C@@H](c3cc(F)cc(F)c3)N1C2=O)c1ncccc1F (single isomer, unassigned) [Example 12.5, (1R or S,3S or r,5′S,7a′R)-5′-(3,5-difluorophenyl)-3-((S or R)-1-(3-fluoropyridin-2-yl)ethoxy)tetrahydro-3′H-spiro[cyclobutane-1,2′-pyrrolo[2,1-b]oxazol]-3′-one]	305
CC(OC1CC2(C1)O[C@@H]1CC[C@@H](c3cc(F)cc(F)c3)N1C2=O)c1ccccc1 (single isomer, unassigned) [Example 15.1, ((1S or R),3R,5′S,7a′R)-5′-(3,5-difluorophenyl)-3-((S or R)-1-phenylethoxy)tetrahydro-3′H-spiro[cyclobutane-1,2′-pyrrolo[2,1-b]oxazol]-3′-one]	284
CC(OC1CC2(C1)OC1CCC(c3cc(F)cc(F)c3)N1C2=O)c1ccccc1 (single isomer, unassigned) [Example 15.2, ((1R or S),3R,5′S,7a′R)-5′-(3,5-difluorophenyl)-3-((S or R)-1-phenylethoxy)tetrahydro-3′H-spiro[cyclobutane-1,2′-pyrrolo[2,1-b]oxazol]-3′-one]	70
CC(OC1CC2(C1)OC1CCC(c3cc(F)cc(F)c3)N1C2=O)c1ccccc1 (single isomer, unassigned) [Example 15.3, ((1S or R),3R,5′S,7a′R)-5′-(3,5-difluorophenyl)-3-((R or S)-1-phenylethoxy)tetrahydro-3′H-spiro[cyclobutane-1,2′-pyrrolo[2,1-b]oxazol]-3′-one]	26
CC(OC1CC2(C1)OC1CCC(c3cc(F)cc(F)c3)N1C2=O)c1ccccc1 (single isomer, unassigned) [Example 15.4, ((1R or S),3R,5′S,7a′R)-5′-(3,5-difluorophenyl)-3-((R or S)-1-phenylethoxy)tetrahydro-3′H-spiro[cyclobutane-1,2′-pyrrolo[2,1-b]oxazol]-3′-one]	19
O=C1N2[C@@H](CC[C@H]2c2cc(F)cc(F)c2)OC12CC(Oc1ccccc1)C2 (single isomer, unassigned) [Example 16.1, ((1s or r),3R,5′S,7a′R)-5′-(3,5-difluorophenyl)-3-phenoxytetrahydro-3′H-spiro[cyclobutane-1,2′-pyrrolo[2,1-b]oxazol]-3′-one]	30
O=C1N2[C@@H](CC[C@H]2c2cc(F)cc(F)c2)OC12CC(Oc1ccccc1)C2 (single isomer, unassigned) [Example 16.2, ((1r or s),3R,5′S,7a′R)-5′-(3,5-difluorophenyl)-3-phenoxytetrahydro-3′H-spiro[cyclobutane-1,2′-pyrrolo[2,1-b]oxazol]-3′-one]	29
O=C1N2[C@@H](CC[C@H]2c2cncc(F)c2)OC12CCC(Oc1ccccc1)CC2 (single isomer, unassigned) [Example 16.3, (1r or s),(5′S,7a′R)-5′-(5-fluoropyridin-3-yl)-4-phenoxytetrahydro-3′H-spiro[cyclohexane-1,2′-pyrrolo[2,1-b]oxazol]-3′-one]	62
O=C1N2[C@@H](CC[C@H]2c2cncc(F)c2)OC12CCC(Oc1ccccc1)CC2 (single isomer, unassigned) [Example 16.4, (1s or r), (5′S,7a′R)-5′-(5-fluoropyridin-3-yl)-4-phenoxytetrahydro-3′H-spiro[cyclohexane-1,2′-pyrrolo[2,1-b]oxazol]-3′-one]	476
O=C1N2[C@@H](CC[C@H]2c2ccc(F)cn2)O[C@]12C[C@@H](OCc1ccccc1)C2 [Example 3.1, (1s,3R,5′S,7a′R)-3-(benzyloxy)-5′-(5-fluoropyridin-2-yl)tetrahydro-3′H-spiro[cyclobutane-1,2′-pyrrolo[2,1-b]oxazol]-3′-one]	108
O=C1N2[C@@H](CC[C@H]2c2cnccn2)O[C@]12C[C@H](OCc1ccccc1)C2 [Example 4.1, ((1r),3R,5′S,7a′R)-3-(benzyloxy)-5′-(pyrazin-2-yl)tetrahydro-3′H-spiro[cyclobutane-1,2′-pyrrolo[2,1-b]oxazol]-3′-one]	49
O=C1N2[C@@H](CC[C@H]2c2cnccn2)OC12CC(OCc1ccccc1)C2 (stereo partly drawn) [Example 4.2, ((1s),3R,5′S,7a′R)-3-(benzyloxy)-5′-(pyrazin-2-yl)tetrahydro-3′H-spiro[cyclobutane-1,2′-pyrrolo[2,1-b]oxazol]-3′-one]	24
CC1(Oc2cc(C#N)ncn2)CC2(C1)O[C@@H]1CC[C@@H](c3cc(F)cc(F)c3)N1C2=O (stereo partly drawn) [Example 5.1, 6-(((5′S,7a′R)-5′-(3,5-difluorophenyl)-3-methyl-3′-oxotetrahydro-3′H-spiro[cyclobutane-1,2′-pyrrolo[2,1-b]oxazol]-3-yl)oxy)pyrimidine-4-carbonitrile]	57

Further lines, results first:

EC50 [nM]	SMILES
86	N#Cc1cc(OC2CC3(C2)O[C@@H]2CC[C@@H](c4cc(F)cc(F)c4)N2C3=O)ncc1F (single isomer, unassigned) [Example 17.1, 2-((((Is or r),3S,5′S,7a′R)-5′-(3,5-difluorophenyl)-3′-oxotetrahydro-3′H-spiro[cyclobutane-1,2′-pyrrolo[2,1-b]oxazol]-3-yl)oxy)-5-fluoroisonicotinonitrile]
227	N#Cc1cc(OC2CC3(C2)O[C@@H]2CC[C@@H](c4cc(F)cc(F)c4)N2C3=O)ncc1F (single isomer, unassigned) [Example 17.2, 2-((((1r or s),3S,5′S,7a′R)-5′-(3,5-difluorophenyl)-3′-oxotetrahydro-3′H-spiro[cyclobutane-1,2′-pyrrolo[2,1-b]oxazol]-3-yl)oxy)-5-fluoroisonicotinonitrile]
27	N#Cc1ccc(COC2CC3(C2)O[C@@H]2CC[C@@H](c4cnccn4)N2C3=O)cc1 (single isomer, unassigned) [Example 22.2, 4-((((5′S,7a′R)-3′-oxo-5′-(pyrazin-2-yl)tetrahydro-3′H-spiro[cyclobutane-1,2′-pyrrolo[2,1-b]oxazol]-3-yl)oxy)methyl)benzonitrile]
15	O=C1N2[C@@H](CC[C@H]2c2cnccn2)OC12CC(OCc1cccc(F)c1)C2 (single isomer, unassigned) [Example 22.5]
29	N#Cc1ccc(COC2CC3(C2)O[C@@H]2CC[C@@H](c4cnccn4)N2C3=O)cc1 (single isomer, unassigned) [Example 22.7, 4-({[(5′S,7a′R)-3′-oxo-5′-(pyrazin-2-yl)tetrahydro-3′H-spiro[cyclobutane-1,2′-pyrrolo[2,1-b][1,3]oxazol]-3-yl]oxy}methyl)benzonitrile]
35	O=C1N2[C@@H](CC[C@H]2c2cnccn2)OC12CC(OCc1cccc(F)c1)C2 (single isomer, unassigned) [Example 22.8]
460	O=C1N2[C@@H](CC[C@H]2c2cnccn2)OC12CC(OCC1CCC1)C2 (single isomer, unassigned) [Example 23.1, (5′S,7a′R)-3-(cyclobutylmethoxy)-5′-(pyrazin-2-yl)tetrahydro-3′H-spiro[cyclobutane-1,2′-pyrrolo[2,1-b]oxazol]-3′-one]
577	O=C1N2[C@@H](CC[C@H]2c2cnccn2)OC12CC(OCC1CCC1)C2 (single isomer, unassigned) [Example 23.2, (5′S,7a′R)-3-(cyclobutylmethoxy)-5′-(pyrazin-2-yl)tetrahydro-3′H-spiro[cyclobutane-1,2′-pyrrolo[2,1-b]oxazol]-3′-one]
316	O=C1N2[C@@H](CC[C@H]2c2cnccn2)OC12CC(OCC1CCCC1)C2 (single isomer, unassigned) [Example 23.3, (5′S,7a′R)-3-(cyclopentylmethoxy)-5′-(pyrazin-2-yl)tetrahydro-3′H-spiro[cyclobutane-1,2′-pyrrolo[2,1-b]oxazol]-3′-one]
649	O=C1N2[C@@H](CC[C@H]2c2cnccn2)OC12CC(OCC1CCCC1)C2 (single isomer, unassigned) [Example 23.4, (5′S,7a′R)-3-(cyclopentylmethoxy)-5′-(pyrazin-2-yl)tetrahydro-3′H-spiro[cyclobutane-1,2′-pyrrolo[2,1-b]oxazol]-3′-one]
